SMILES strings stand for the structures.

One assay deals with T1, human FSH receptor (Homo sapiens, UniProt P23945).
T1 construct: expressed in transfected cells; host or cells: CHO (Chinese Hamster Ovary) cells, stably transfected, cotransfected with CRE-luciferase reporter
T1 sequence (P23945 18-695): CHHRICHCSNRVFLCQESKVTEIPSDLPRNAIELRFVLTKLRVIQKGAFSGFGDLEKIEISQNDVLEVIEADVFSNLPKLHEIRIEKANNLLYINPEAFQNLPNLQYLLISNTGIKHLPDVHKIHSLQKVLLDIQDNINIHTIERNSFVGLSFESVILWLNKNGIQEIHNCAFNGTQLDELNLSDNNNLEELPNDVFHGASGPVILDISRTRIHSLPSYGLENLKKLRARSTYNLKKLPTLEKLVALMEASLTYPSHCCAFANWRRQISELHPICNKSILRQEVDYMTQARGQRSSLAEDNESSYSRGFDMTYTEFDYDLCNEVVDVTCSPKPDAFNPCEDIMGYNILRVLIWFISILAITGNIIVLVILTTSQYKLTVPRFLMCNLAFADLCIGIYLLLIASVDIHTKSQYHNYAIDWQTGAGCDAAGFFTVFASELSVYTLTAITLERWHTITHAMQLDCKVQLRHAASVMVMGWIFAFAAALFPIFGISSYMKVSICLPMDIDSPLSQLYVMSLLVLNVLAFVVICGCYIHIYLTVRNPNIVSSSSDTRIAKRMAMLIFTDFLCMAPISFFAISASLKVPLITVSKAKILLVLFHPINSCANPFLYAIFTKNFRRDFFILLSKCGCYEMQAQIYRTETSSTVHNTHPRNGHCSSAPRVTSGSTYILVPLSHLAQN
In words: Agonistic activity at the human FSH receptor expressed in CHO cells (CRE-luciferase reporter). The assay is classed as cell-based. The conditions noted are these: CHO cells stably transfected with human FSH receptor and CRE/luciferase reporter; 4 hours incubation; pEC50 is -log EC50. From the text: The term EC50 means the concentration of the test compound that elicits half-maximal (50%) stimulation compared to the compound's maximally attainable effect. pEC50 is the negative log of EC50. The values can be determined e.g. in a cell line transfected with a FSH receptor gene and cotransfected with a cAMP responsive element/promoter directing the expression of a reporter gene. For the determination a software program such as MathIQ (version 2.0, ID Business Solutions Limited) can be used.
Agonistic activity of the compounds at the human FSH receptor was determined in Chinese Hamster Ovary (CHO) cells stably transfected with the human FSH receptor and cotransfected with a cAMP responsive element (CRE)/promotor directing the expression of a firefly luciferase reporter gene. Binding of the compounds to the Gs protein-coupled FSH receptor will result in an increase of cAMP, which in turn will induce an increased transactivation of the luciferase reporter. Cells (7,500 cells/well of a 384 well plate) were incubated in Dulbecco' minimal essential F12 modified medium (Invitrogen), supplemented with 1 μg/ml bovine insulin, 5 μg/ml human apo-transferrin, 80 U/ml penicillin G and 80 μg/ml streptomycin with the test compounds (concentration between 0.0316 nM and 10.0 μM) in duplicate in a humidified atmosphere (95%) at 5-7% CO2 and 37° C. The final concentration of DMSO was 1%. After 4 hours of incubation, plates were allowed to adjust to room temperature for 1 hour. Then, Luclite (PerkinElmer) solution was added to the wells and cells were allowed to lyse for at least 1 hour at room temperature. Subsequently, luciferase activity was measured in a luminescence counter. The signal is expressed as counts per second (cps). The EC50 (concentration of the test compound that elicits half-maximal (50%) luciferase stimulation compared to the compound's maximally attainable effect) and efficacy values (maximal effect of the test compound as percentage of the maximal effect of recombinant human FSH) of the compounds were determined using the software program MathIQ (version 2.0, ID Business Solutions Limited). pEC50 data (pEC50 is −log EC50) are indicated at the synthesis examples.
With `COc1cc2c(cc1-c1ccn(C)n1)-c1c(-c3cccs3)c3c(n1CC2)C(=O)N(C(C)(C)C)CCC3` [Compound 4h], the “hFSHRago (CHO luc) pEC50” value is on record as 7.19.
In the case of `CC(C)(C)N1CCCc2c(-c3cccs3)c3n(c2C1=O)CCc1ccc(-c2cnccn2)cc1-3` [Compound 4i], the “hFSHRago (CHO luc) pEC50” value was 7.86.
On the same count and under the same terms, under `COc1cc2c(cc1-c1cccnc1)-c1c(-c3cncs3)c3c(n1CC2)C(=O)N(C(C)(C)C)CCCC3` [Compound 11j, 9-tert-butyl-3-methoxy-2-pyridin-3-yl-14-(1,3-thiazol-5-yl)-5,6,10,11,12,13-hexahydroazocino[4′,3′:4,5]pyrrolo[2,1-a]isoquinolin-8(9H)-one] stands 8.51.

Staying with this assay, now noted: CHO cells stably transfected with human FSH receptor and CRE/luciferase reporter; 4 hours incubation; pEC50 is -log EC50; read-out: hFSHRago (CHO luc) pEC50 (converted).
As to `COc1cc2c(cc1[N+](=O)[O-])-c1c(-c3cccs3)c3c(n1CC2)C(=O)N(C(C)(C)C)CC3` [Compound 1i, 9-tert-butyl-3-methoxy-2-nitro-12-(2-thienyl)-5,6,10,11-tetrahydropyrido[4′,3′:4,5]pyrrolo[2,1-a]isoquinolin-8(9H)-one], the EC50 was 100 nM.
The same measure, in the same setting: under `COc1cc2c(cc1[N+](=O)[O-])-c1c(-c3cccs3)c3c(n1CC2)C(=O)N(C(C)(C)C)CCC3` [Compound 2h, 9-tert-butyl-2-nitro-3-methoxy-13-(2-thienyl)-5,6,9,10,11,12-hexahydro-8H-azepino[4′,3′:4,5]pyrrolo[2,1-a]isoquinolin-8-one] stands 34.7 nM; under `CCn1nnc(-c2cc3c(cc2OC)CCn2c4c(c(-c5cccs5)c2-3)CCCN(C(C)(C)C)C4=O)n1` [Compound 3e, 9-tert-butyl-2-(2-ethyl-2H-tetrazol-5-yl)-3-methoxy-13-(2-thienyl)-5,6,9,10,11,12-hexahydro-8H-azepino[4′,3′:4,5]pyrrolo[2,1-a]isoquinolin-8-one], 36.3 nM; under `COc1cc2c(cc1NC(=O)C(C)C)-c1c(-c3cccs3)c3c(n1CC2)C(=O)N(C(C)(C)C)CCC3` [Compound 3f, 9-tert-butyl-2-isobutyramido-3-methoxy-13-(2-thienyl)-5,6,9,10,11,12-hexahydro-8H-azepino[4′,3′:4,5]pyrrolo[2,1-a]isoquinolin-8-one], 126 nM.
Take `COc1cc2c(cc1-c1ncco1)-c1c(-c3cccs3)c3c(n1CC2)C(=O)N(C(C)(C)C)CCC3` [Compound 4f, 9-tert-butyl-2-(oxazol-2-yl)-3-methoxy-13-(2-thienyl)-5,6,9,10,11,12-hexahydro-8H-azepino[4′,3′:4,5]pyrrolo[2,1-a]isoquinolin-8-one]: the EC50 was 11.5 nM.
As to `COc1cc2c(cc1-c1cccnc1)-c1c(-c3cccs3)c3c(n1CC2)C(=O)N(C(C)(C)C)CCC3` [Compound 4g, 9-tert-butyl-2-(pyridin-3-yl)-3-methoxy-13-(2-thienyl)-5,6,9,10,11,12-hexahydro-8H-azepino[4′,3′:4,5]pyrrolo[2,1-a]isoquinolin-8-one], the EC50 was 4.17 nM.
Take `COc1cc2c(cc1OC(C)C)-c1c(-c3cccs3)c3c(n1CC2)C(=O)N(C(C)(C)C)CCC3` [Compound 6e]: the EC50 was 11 nM.
The same measure, in the same setting: in the case of `COc1cc2c(cc1OC(C)C)-c1c(-c3cccs3)c3c(n1CC2)C(=O)N(C(C)C)CCC3` [Compound 6f] it was 50.1 nM; in that of `COc1cc2c(cc1-c1cccnc1)-c1c(-c3cccs3)c3c(n1CC2)C(=O)N(C(C)(C)C)CCCOC3` [Compound 7l, 9-tert-butyl-3-methoxy-2-pyridin-3-yl-15-(2-thienyl)-5,6,9,10,11,12-hexahydro[1,5]oxazonino[8′,7′:4,5]pyrrolo[2,1-a]isoquinolin-8(14H)-one], 2.82 nM; in that of `COc1cc2c(cc1-c1cnccn1)-c1c(-c3cccs3)c3c(n1CC2)C(=O)N(C(C)(C)C)CCCOC3` [Compound 7m, 9-tert-butyl-3-methoxy-2-pyrazin-2-yl-15-(2-thienyl)-5,6,9,10,11,12-hexahydro[1,5]oxazonino[8′,7′:4,5]pyrrolo[2,1-a]isoquinolin-8(14H)-one], 17.8 nM.
`COc1cc2c(cc1-c1cccnc1)-c1c(-c3cncs3)c3c(n1CC2)C(=O)N(C(C)(C)C)CCCOC3` [Compound 8f, 9-tert-butyl-3-methoxy-2-pyridin-3-yl-15-(1,3-thiazol-5-yl)-5,6,9,10,11,12-hexahydro[1,5]oxazonino[8′,7′:4,5]pyrrolo[2,1-a]isoquinolin-8(14H)-one]: the EC50 is 14.1 nM.
Regarding `COc1cc2c(cc1-c1cnccn1)-c1c(-c3cncs3)c3c(n1CC2)C(=O)N(C(C)(C)C)CCCOC3` [Compound 8g, 9-tert-butyl-3-methoxy-2-pyrazin-2-yl-15-(1,3-thiazol-5-yl)-5,6,9,10,11,12-hexahydro[1,5]oxazonino[8′,7′:4,5]pyrrolo[2,1-a]isoquinolin-8(14H)-one], the EC50 is 120 nM.
As for `COc1cc2c(cc1-c1cccnc1)-c1c(-c3cccs3)c3c(n1CC2)C(=O)N(C(C)C)CCN(C(C)=O)C3` [Compound 10p, 12-acetyl-9-isopropyl-3-methoxy-2-pyridin-3-yl-14-(2-thienyl)-5,6,10,11,12,13-hexahydro[1,4]diazocino[6′,7′:4,5]pyrrolo[2,1-a]isoquinolin-8(9H)-one], the EC50 is 5.25 nM.
`COc1cc2c(cc1-c1c(C)nn(C)c1C)-c1c(-c3cccs3)c3c(n1CC2)C(=O)N(C(C)C)CCNC3` [Compound 10q, 9-isopropyl-3-methoxy-2-(1,3,5-trimethyl-1H-pyrazol-4-yl)-14-(2-thienyl)-5,6,10,11,12,13-hexahydro[1,4]diazocino[6′,7′:4,5]pyrrolo[2,1-a]isoquinolin-8(9H)-one]: the EC50 was 257 nM.
For the compound `COc1cc2c(cc1-c1c(C)nn(C)c1C)-c1c(-c3cccs3)c3c(n1CC2)C(=O)N(C(C)C)CCN(C(C)=O)C3` [Compound 10r, 12-acetyl-9-isopropyl-3-methoxy-14-(2-thienyl)-2-(1,3,5-trimethyl-1H-pyrazol-4-yl)-5,6,10,11,12,13-hexahydro[1,4]diazocino[6′,7′:4,5]pyrrolo[2,1-a]isoquinolin-8(9H)-one], the EC50 was 162 nM.
On the same count and under the same terms, in the case of `COc1cc2c(cc1-c1c(C)nn(C)c1C)-c1c(-c3cccs3)c3c(n1CC2)C(=O)N(C(C)C)CCN(C(=O)C(C)C)C3` [Compound 10s, 12-isobutyryl-9-isopropyl-3-methoxy-14-(2-thienyl)-2-(1,3,5-trimethyl-1H-pyrazol-4-yl)-5,6,10,11,12,13-hexahydro[1,4]diazocino[6′,7′:4,5]pyrrolo[2,1-a]isoquinolin-8(9H)-one] it was 5010 nM; in that of `COc1cc2c(cc1-c1c(C)nn(C)c1C)-c1c(-c3cccs3)c3c(n1CC2)C(=O)N(C(C)C)CCN(C(=O)CCC(F)(F)F)C3` [Compound 10t, 9-isopropyl-3-methoxy-14-(2-thienyl)-12-(4,4,4-trifluorobutanoyl)-2-(1,3,5-trimethyl-1H-pyrazol-4-yl)-5,6,10,11,12,13-hexahydro[1,4]diazocino[6′,7′:4,5]pyrrolo[2,1-a]isoquinolin-8(9H)-one], 977 nM; in that of `COc1cc2c(cc1-c1cccnc1)-c1c(-c3cccs3)c3c(n1CC2)C(=O)N(C(C)C)CCN(C(=O)C(C)C)C3` [Compound 10w, 9-isopropyl-3-methoxy-12-isobutyryl-14-(2-thienyl)-2-pyridin-3-yl-5,6,10,11,12,13-hexahydro[1,4]diazocino[6′,7′:4,5]pyrrolo[2,1-a]isoquinolin-8(9H)-one], 759 nM.
Consider `COc1cc2c(cc1-c1ncco1)-c1c(-c3cccs3)c3c(n1CC2)C(=O)N(C(C)C)CCN(C(=O)C(C)C)C3` [Compound 10x, 9-isopropyl-3-methoxy-12-isobutyryl-14-(2-thienyl)-2-oxazol-2-yl-5,6,10,11,12,13-hexahydro[1,4]diazocino[6′,7′:4,5]pyrrolo[2,1-a]isoquinolin-8(9H)-one], for which the EC50 was 1260 nM.

These data come from patent publication US8431564B2 (Merck Sharp & Dohme B.V., priority 2009, dated 2013).
